Source: publication PMC7139822, “Flumazenil-Insensitive Benzodiazepine Effects in Recombinant αβ and Neuronal GABAA Receptors” (Brain Sciences, 2020)

Target: T1, α1β2 receptor (Rattus norvegicus, UniProt P62813+P63138)
T1 construct: gene Gabra1; full-length rat subunit cDNAs by RT-PCR from brain mRNA; α in pcDNA3.1(+), β in pIRES2-EGFP (EGFP separate via IRES); HEK293; α:β cDNA 1:1, said to favor 2α:3β pentamer
Assay: whole-cell patch clamp, HEK293
Assay type: cell-based
Details: 200 µM; positive allosteric modulator, non-classical site; co-applied with 0.1 μmol/L GABA; −60 mV; pH 7.4
Source text: whole-cell patch clamp, HEK293 on α1β2 receptor

T1 sequence (P62813 28-455): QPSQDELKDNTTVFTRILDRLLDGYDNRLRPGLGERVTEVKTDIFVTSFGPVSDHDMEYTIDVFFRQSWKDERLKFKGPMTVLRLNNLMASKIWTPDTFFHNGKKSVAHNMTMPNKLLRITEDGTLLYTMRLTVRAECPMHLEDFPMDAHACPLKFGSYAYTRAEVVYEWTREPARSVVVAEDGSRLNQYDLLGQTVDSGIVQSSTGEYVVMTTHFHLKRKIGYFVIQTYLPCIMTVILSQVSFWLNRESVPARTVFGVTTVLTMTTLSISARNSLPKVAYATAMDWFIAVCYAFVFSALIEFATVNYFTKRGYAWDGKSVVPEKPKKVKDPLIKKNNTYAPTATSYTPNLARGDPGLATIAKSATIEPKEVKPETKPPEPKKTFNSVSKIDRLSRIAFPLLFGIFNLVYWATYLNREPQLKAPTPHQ
T1 sequence (P63138 26-474): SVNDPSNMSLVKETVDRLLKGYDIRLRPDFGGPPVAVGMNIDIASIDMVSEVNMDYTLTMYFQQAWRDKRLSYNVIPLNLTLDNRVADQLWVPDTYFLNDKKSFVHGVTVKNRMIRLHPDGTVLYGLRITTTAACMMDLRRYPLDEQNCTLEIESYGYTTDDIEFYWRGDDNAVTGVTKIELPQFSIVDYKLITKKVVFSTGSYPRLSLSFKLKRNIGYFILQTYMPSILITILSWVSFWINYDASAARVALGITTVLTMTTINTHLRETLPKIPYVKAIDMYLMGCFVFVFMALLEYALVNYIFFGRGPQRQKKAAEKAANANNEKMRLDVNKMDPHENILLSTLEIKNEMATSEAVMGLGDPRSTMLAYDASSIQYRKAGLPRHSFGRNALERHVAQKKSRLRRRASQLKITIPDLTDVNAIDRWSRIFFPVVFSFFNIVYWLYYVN

Cc1ncc2n1-c1ccc(Cl)cc1C(c1ccccc1F)=NC2 [Midazolam]
Potentiation of GABA Currents (%) / (Midazolam): 171.8 ± 13.8%
